According to PubChem BioAssay AID248 (DTP/NCI, 2004):
“And” between values parts separate entries of the source, which are not always exact repeats. Equal values may be shown once. Inconclusive results and toxic doses are left out. Cut-off read from the data, not from the text of the source: active = T/C of 150% or more; inactive = T/C below 125%.

Test system: L1210 leukemia ip in BDF1 mice, survival T/C
Experiment: NCI In Vivo Anticancer Drug Screen. Data for tumor model L1210 Leukemia (intraperitoneal) in B6D2F1 (BDF1) mice
Details: endpoint: mean survival time, higher = longer survival
How it was run: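 Transplanted-tumor mice were given test agent; controls received vehicle only. Survival readings from the two groups were divided (treated over control).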

[1] = dose: 100.0 mg/kg/injection, schedule: Q01DX009 (ip), vehicle: Klucel (hydroxypropylcellulose) (HPC)
[2] = dose: 100.0 mg/kg/injection, schedule: Q04DX003 (ip), vehicle: Klucel (hydroxypropylcellulose) (HPC)
[3] = dose: 200.0 mg/kg/injection, schedule: Q01DX009 (ip), vehicle: Klucel (hydroxypropylcellulose) (HPC)
[4] = dose: 200.0 mg/kg/injection, schedule: Q04DX003 (ip), vehicle: Klucel (hydroxypropylcellulose) (HPC)
[5] = dose: 400.0 mg/kg/injection, schedule: Q01DX009 (ip), vehicle: Klucel (hydroxypropylcellulose) (HPC)
[6] = dose: 400.0 mg/kg/injection, schedule: Q04DX003 (ip), vehicle: Klucel (hydroxypropylcellulose) (HPC)
[7] = dose: 100.0 mg/kg/injection, schedule: Q04DX002 (ip), vehicle: Klucel (hydroxypropylcellulose) (HPC)
[8] = dose: 200.0 mg/kg/injection, schedule: Q04DX002 (ip), vehicle: Klucel (hydroxypropylcellulose) (HPC)
[9] = dose: 400.0 mg/kg/injection, schedule: Q04DX002 (ip), vehicle: Klucel (hydroxypropylcellulose) (HPC)
[10] = dose: 100.0 mg/kg/injection, schedule: Q01DX001 (ip), vehicle: other
[11] = dose: 200.0 mg/kg/injection, schedule: Q01DX001 (ip), vehicle: other
[12] = dose: 400.0 mg/kg/injection, schedule: Q01DX001 (ip), vehicle: other
[13] = dose: 100.0 mg/kg/injection, schedule: Q04DX003 (ip), vehicle: saline with Tween-80
[14] = dose: 200.0 mg/kg/injection, schedule: Q04DX003 (ip), vehicle: saline with Tween-80
[15] = dose: 400.0 mg/kg/injection, schedule: Q04DX003 (ip), vehicle: saline with Tween-80
[16] = dose: 100.0 mg/kg/injection, schedule: Q01DX001 (ip), vehicle: saline
[17] = dose: 200.0 mg/kg/injection, schedule: Q01DX001 (ip), vehicle: saline
[18] = dose: 400.0 mg/kg/injection, schedule: Q01DX001 (ip), vehicle: saline
[19] = dose: 50.0 mg/kg/injection, schedule: Q01DX001 (ip), vehicle: carboxymethylcellulose (CMC)
[20] = dose: 100.0 mg/kg/injection, schedule: Q01DX009 (ip), vehicle: saline with Tween-80
[21] = dose: 200.0 mg/kg/injection, schedule: Q01DX009 (ip), vehicle: saline with Tween-80
[22] = dose: 400.0 mg/kg/injection, schedule: Q01DX009 (ip), vehicle: saline with Tween-80

Measured: T/C

Cc1cccc(NS(=O)(=O)c2ccccc2)c1C
inactive: [1] 91 % of control | [2] 97 % of control | [3] 91 % of control | [4] 93 % of control | [5] 98 % of control | [6] 98 % of control

COC(=O)c1ccccc1-n1c(-c2ccc([N+](=O)[O-])cc2)csc1=NC(=O)c1cccc([N+](=O)[O-])c1
inactive: [1] 91 % of control | [7] 92 % of control | [3] 91 % of control | [8] 95 % of control | [5] 88 % of control | [9] 100 % of control

C/C(=N\N=C(/C)c1cccc([N+](=O)[O-])c1)c1cccc([N+](=O)[O-])c1
inactive: [10] 100 % of control | [11] 100 % of control | [12] 97 % of control

C=CCC1(O)C(c2ccccc2)=C(c2ccccc2)C(c2ccccc2)=C1c1ccccc1
inactive: dose: 50.0 mg/kg/injection, schedule: Q01DX001 (ip), vehicle: other 98 % of control | [10] 96 % of control | [11] 98 % of control | [12] 98 % of control

C(=N\Nc1ccccc1)/C(=N\Nc1ccccc1)c1ccccc1
inactive: [13] 103 % of control | [14] 97 % of control | [15] 98 % of control

CCOc1c(OC)cc(/C=C/C(=O)NC2CC2)cc1OC
inactive: dose: 25.0 mg/kg/injection, schedule: Q01DX009 (ip), vehicle: Klucel (hydroxypropylcellulose) (HPC) 88 % of control | [1] 101 % of control and 88 % of control

O=[N+]([O-])c1ccc(OCCCOc2ccc(S(=O)(=O)F)cc2)cc1
inactive: dose: 100.0 mg/kg/injection, schedule: Q04DX003 (ip), vehicle: saline 102 % of control | dose: 200.0 mg/kg/injection, schedule: Q04DX003 (ip), vehicle: saline 102 % of control | dose: 400.0 mg/kg/injection, schedule: Q04DX003 (ip), vehicle: saline 106 % of control

Oc1ccc2c(c1)CNCC2
inactive: [16] 96 % of control | [17] 98 % of control | [18] 102 % of control

CC(=O)Nc1ccc(C(=O)N=C(C2CCCC2)N2CCCC2)cc1
inactive: [16] 96 % of control | [17] 100 % of control | [18] 105 % of control

CCCCCCCCCCCCCCCCCCNC1=C(Cl)C(=O)C(NCCCCCCCCCCCCCCCCCC)=C(Cl)C1=O
inactive: [19] 100 % of control

Cc1c(O)ccc2c1CCCC2
inactive: dose: 25.0 mg/kg/injection, schedule: Q04DX003 (ip), vehicle: Klucel (hydroxypropylcellulose) (HPC) 103 % of control | dose: 50.0 mg/kg/injection, schedule: Q04DX003 (ip), vehicle: Klucel (hydroxypropylcellulose) (HPC) 97 % of control | dose: 100.0 mg/kg/injection, schedule: Q01DX009 (ip), vehicle: saline sonified 92 % of control | [2] 92 % of control and 117 % of control | dose: 200.0 mg/kg/injection, schedule: Q01DX009 (ip), vehicle: saline sonified 88 % of control | [4] 107 % of control | dose: 400.0 mg/kg/injection, schedule: Q01DX009 (ip), vehicle: saline sonified 94 % of control | [6] 103 % of control

O=C(NC(=S)Nc1ccc(Cl)c(Cl)c1)c1cccc([N+](=O)[O-])c1
inactive: [1] 95 % of control | [7] 95 % of control and 97 % of control | [2] 93 % of control | [3] 95 % of control | [8] 93 % of control and 97 % of control | [4] 95 % of control | [5] 92 % of control and 94 % of control | [9] 95 % of control and 102 % of control | [6] 93 % of control

Cc1ccc(C(c2ccccc2)C(COS(C)(=O)=O)COS(C)(=O)=O)cc1 (stereo not drawn)
inactive: dose: 75.0 mg/kg/injection, schedule: Q04DX002 (ip), vehicle: Klucel (hydroxypropylcellulose) (HPC) 90 % of control | dose: 150.0 mg/kg/injection, schedule: Q04DX002 (ip), vehicle: Klucel (hydroxypropylcellulose) (HPC) 97 % of control | dose: 300.0 mg/kg/injection, schedule: Q04DX002 (ip), vehicle: Klucel (hydroxypropylcellulose) (HPC) 108 % of control

COC(=O)c1ccccc1OC(=S)N(C)C
inactive: [13] 113 % of control | [14] 103 % of control | [15] 114 % of control

C/C(=N\N1CCCCCC1)c1ccccc1
inactive: dose: 100.0 mg/kg/injection, schedule: Q01DX009 (sc), vehicle: olive oil, sesame oil, peanut oil 95 % of control | dose: 100.0 mg/kg/injection, schedule: Q04DX003 (sc), vehicle: olive oil, sesame oil, peanut oil 112 % of control | dose: 200.0 mg/kg/injection, schedule: Q01DX009 (sc), vehicle: olive oil, sesame oil, peanut oil 98 % of control | dose: 200.0 mg/kg/injection, schedule: Q04DX003 (sc), vehicle: olive oil, sesame oil, peanut oil 105 % of control | dose: 400.0 mg/kg/injection, schedule: Q01DX009 (sc), vehicle: olive oil, sesame oil, peanut oil 97 % of control | dose: 400.0 mg/kg/injection, schedule: Q04DX003 (sc), vehicle: olive oil, sesame oil, peanut oil 105 % of control

C=CCNc1cc(NN)nn2nnnc12
inactive: [7] 108 % of control | [8] 104 % of control | [9] 123 % of control

Cn1nc(N)c2ncc(-c3ccc(Cl)cc3)nc21
inactive: [20] 93 % of control | [21] 96 % of control | [22] 87 % of control

O=C1NCCCC1O (stereo not drawn)
inactive: [19] 94 % of control | dose: 100.0 mg/kg/injection, schedule: Q01DX001 (ip), vehicle: carboxymethylcellulose (CMC) 89 % of control | dose: 200.0 mg/kg/injection, schedule: Q01DX001 (ip), vehicle: carboxymethylcellulose (CMC) 105 % of control | dose: 400.0 mg/kg/injection, schedule: Q01DX001 (ip), vehicle: carboxymethylcellulose (CMC) 103 % of control

C/C(=C\C(=O)O)CC(=O)O
inactive: dose: 25.0 mg/kg/injection, schedule: Q01DX009 (ip), vehicle: water 88 % of control | dose: 25.0 mg/kg/injection, schedule: Q04DX003 (ip), vehicle: water 95 % of control and 105 % of control | dose: 50.0 mg/kg/injection, schedule: Q04DX003 (ip), vehicle: water 104 % of control and 89 % of control | dose: 100.0 mg/kg/injection, schedule: Q01DX009 (ip), vehicle: water 88 % of control | dose: 100.0 mg/kg/injection, schedule: Q04DX003 (ip), vehicle: water 101 % of control and 102 % of control | dose: 200.0 mg/kg/injection, schedule: Q04DX003 (ip), vehicle: water 93 % of control

O=C(OCCCCCCl)c1ccccc1
inactive: [20] 100 % of control | [13] 106 % of control | [21] 104 % of control | [14] 97 % of control | [22] 98 % of control | [15] 95 % of control

O=C(c1ccccc1)C(C(O)CCl)C(O)(C(F)(F)F)C(F)(F)F (stereo not drawn)
inactive: [13] 89 % of control | [14] 93 % of control | [15] 91 % of control
